According to patent publication EP2181708A1, “Use of Valproate for reducing CHOP levels, particularly in a mammal having SCI” (Universitat Autonoma de Barcelona, priority 2008, dated 2010):

Tests used:
CHOP = assay: Tunicamycin-induced ER stress in HEK cell line, Western blot of CHOP; format: cell-based; conditions: 3 µg/ml tunicamycin, valproate
Protocol: Primary fibroblasts obtained from rat sciatic nerve and HEK cell line were cultured in Dulbecco's modified Eagle's/F-12 medium supplemented with 10% fetal calf serum (Gibco). Fibroblasts were treated with 3 µg/mL of tunicamycin (Sigma) for 4 h and harvested in RIPA buffer for protein extraction.
We have recently reported that SCI triggers an unbalanced UPR characterized by unchanged levels of BiP/Grp78 levels but progressive accumulation of the pro-apoptotic protein CHOP, with maximal CHOP levels found at 3 days post-injury in the weight-drop contusion model (Penas et al, 2007). In this study, we used a contusion model using an impactor device to specifically control the force (either 150 KDyn or 250 KDyn) to be apply on the T8 laminectomized spinal cord segment. We analyzed the spinal cord 8 mm-length segment that includes the lesion epicenter from sham-operated animals and from VPA treated or vehicle treated SCI animals at 3 days after operation. […] Thus, we increased the amount of VPA administered to 300 mg/kg every 12 h, as reported previously for a brain stroke rat model (Kim et al, 2007), and analyzed the effect using two different contusion forces of 150 and 250 KDyn. We observed that the levels of CHOP were directly proportional to the severity of the lesion; the more severe, the higher the level. […]

axons = assay: Immunohistochemistry of axons (RT97 neurofilament, 5-HT) after SCI; format: in vivo, Sprague-Dawley rats
Protocol: Adult females Sprague-Dawley rats aged 11 weeks (220-250 g) were anesthetized with pentobarbital (40 mg/kg i.p.). When unresponsive, the vertebral column was exposed and a laminectomy carried out at T8-T9 levels. Rostral T7 and caudal T10 vertebral bodies were clamped with Adson stabilizing forceps, and carefully adjusted to level the spinal cord in the horizontal plane. A contusion injury was performed using the Infinite Horizon impactor device (Precision Scientific Instruments, Lexington, KY). The stainless steel impounder tip was placed at 3-4 mm above the exposed spinal cord, and then a fast impact produced applying forces of 150 or 250 kilodynes (KDyn) to the exposed spinal cord. The wound was sutured with 5-0 silk thread in the muscular plane and the skin was closed with small clips and disinfected with povidone iodine solution. Sham-operated animals received the same surgical procedure but sustained no impact injury; the spinal cord was left exposed for 5 min. The animals were maintained in a warm environment until full recovery, and received preventive antibiotic (amoxicyline) and analgesic (buprenorphine) treatment. All animals were kept under standard conditions of light and temperature and fed with food and water ad libitum. […]

tibialis anterior muscle = assay: Electrophysiological tests (H/M ratio, motor evoked potentials) after spinal cord contusion; format: in vivo, Sprague-Dawley rats
Protocol: Adult females Sprague-Dawley rats aged 11 weeks (220-250 g) were anesthetized with pentobarbital (40 mg/kg i.p.). When unresponsive, the vertebral column was exposed and a laminectomy carried out at T8-T9 levels. Rostral T7 and caudal T10 vertebral bodies were clamped with Adson stabilizing forceps, and carefully adjusted to level the spinal cord in the horizontal plane. A contusion injury was performed using the Infinite Horizon impactor device (Precision Scientific Instruments, Lexington, KY). The stainless steel impounder tip was placed at 3-4 mm above the exposed spinal cord, and then a fast impact produced applying forces of 150 or 250 kilodynes (KDyn) to the exposed spinal cord. The wound was sutured with 5-0 silk thread in the muscular plane and the skin was closed with small clips and disinfected with povidone iodine solution. Sham-operated animals received the same surgical procedure but sustained no impact injury; the spinal cord was left exposed for 5 min. The animals were maintained in a warm environment until full recovery, and received preventive antibiotic (amoxicyline) and analgesic (buprenorphine) treatment. All animals were kept under standard conditions of light and temperature and fed with food and water ad libitum. The procedures involving animals were approved by the Ethics Committee of our institution, and followed the European Communities Council Directive 86/609/EEC.
VPA was intraperitoneally administered at an initial dose of 150 mg/kg by 3 h after surgery, and then a dose of 300 mg/Kg either every 24 h or every 12 h during the first week post-surgery, following by a dose of 300 mg/Kg every 24 h for the next two weeks. […]
Electrophysiological tests were performed at 14 and 28 days after operation. […] The H/M amplitude ratio was calculated. Motor evoked potentials (MEPs) were elicited by transcranial stimulation with two needle electrodes placed subcutaneously over the skull, delivering pulses of 0.1 ms duration and 25 mA intensity, and recorded from the tibialis anterior muscle (Garcia-Alias et al., 2003).

CCCC(CCC)C(=O)O [VPA, 2-propylpentanoic acid]
CHOP accumulation promoted by tunicamycin (CHOP): can be attenuated
density of axonal profiles (axons; anti-neurofilament antibody RT97, rostral and caudal to the lesion): increased density
number of serotonin (5-HT)-positive axons (axons; rostral and caudal to the lesion): increased
mean amplitudes of MEPs (tibialis anterior muscle; 14 and 28 days postlesion, vs group control): slightly higher
mean H/M amplitude ratio (tibialis anterior muscle; 14 days, injured rats): about 9%
mean H/M amplitude ratio (tibialis anterior muscle; 28 days, control group 20%): 16%
